Reference: ChEMBL document CHEMBL3421597, “(±) cis-Bisamido epoxides: A novel series of potent FXIII-A inhibitors” (Eur J Med Chem, 2015)
Active and inactive are the calls of the source. No cut-off for these calls is given here.

Columns and labels:
[1] = molecular target: T1, Coagulation factor XIII A chain (Homo sapiens, UniProt P00488); assay: Inhibition of thrombin-activated F13-A (unknown origin) in plasma assessed as inhibition of fibrin clot formation after 7 mins by biotin incorporation assay
T1 sequence (P00488 whole entry): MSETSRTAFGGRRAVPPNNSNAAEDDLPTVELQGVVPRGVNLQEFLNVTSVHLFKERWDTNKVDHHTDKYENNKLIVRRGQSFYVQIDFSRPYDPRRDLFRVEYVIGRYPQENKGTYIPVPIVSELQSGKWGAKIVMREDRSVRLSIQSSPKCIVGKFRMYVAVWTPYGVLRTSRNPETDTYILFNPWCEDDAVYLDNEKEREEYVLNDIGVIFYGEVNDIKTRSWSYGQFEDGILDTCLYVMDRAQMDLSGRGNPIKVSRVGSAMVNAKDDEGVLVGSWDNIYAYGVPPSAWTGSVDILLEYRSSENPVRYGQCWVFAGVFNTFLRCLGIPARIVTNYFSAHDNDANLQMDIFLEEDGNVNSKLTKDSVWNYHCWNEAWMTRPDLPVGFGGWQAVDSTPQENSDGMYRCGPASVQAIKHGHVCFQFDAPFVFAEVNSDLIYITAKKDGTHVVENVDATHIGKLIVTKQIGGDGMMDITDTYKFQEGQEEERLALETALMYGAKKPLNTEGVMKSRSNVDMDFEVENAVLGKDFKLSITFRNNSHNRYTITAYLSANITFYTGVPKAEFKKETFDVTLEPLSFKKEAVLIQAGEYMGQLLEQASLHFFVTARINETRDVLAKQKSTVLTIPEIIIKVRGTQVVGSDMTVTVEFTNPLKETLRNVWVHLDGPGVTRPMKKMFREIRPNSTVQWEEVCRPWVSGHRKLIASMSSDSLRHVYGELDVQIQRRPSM

[2] = molecular target: Cathepsin S (Homo sapiens) (UniProt P25774); assay: Inhibition of cathepsin S (unknown origin) using Z-Val-Val-Arg-AMC as substrate at 100 uM measured every minute for 30 mins by fluorometric plate reader analysis
Homo sapiens = organism: Homo sapiens; assay: Selectivity ratio, ratio of concentration required for inhibition of cathepsin S (unknown origin) to IC50 for F13-A (unknown origin)
[3] = molecular target: T2, Protein-glutamine gamma-glutamyltransferase (Homo sapiens, UniProt P21980); assay: Inhibition of transglutaminase 2 (unknown origin)
T2 sequence (P21980 whole entry): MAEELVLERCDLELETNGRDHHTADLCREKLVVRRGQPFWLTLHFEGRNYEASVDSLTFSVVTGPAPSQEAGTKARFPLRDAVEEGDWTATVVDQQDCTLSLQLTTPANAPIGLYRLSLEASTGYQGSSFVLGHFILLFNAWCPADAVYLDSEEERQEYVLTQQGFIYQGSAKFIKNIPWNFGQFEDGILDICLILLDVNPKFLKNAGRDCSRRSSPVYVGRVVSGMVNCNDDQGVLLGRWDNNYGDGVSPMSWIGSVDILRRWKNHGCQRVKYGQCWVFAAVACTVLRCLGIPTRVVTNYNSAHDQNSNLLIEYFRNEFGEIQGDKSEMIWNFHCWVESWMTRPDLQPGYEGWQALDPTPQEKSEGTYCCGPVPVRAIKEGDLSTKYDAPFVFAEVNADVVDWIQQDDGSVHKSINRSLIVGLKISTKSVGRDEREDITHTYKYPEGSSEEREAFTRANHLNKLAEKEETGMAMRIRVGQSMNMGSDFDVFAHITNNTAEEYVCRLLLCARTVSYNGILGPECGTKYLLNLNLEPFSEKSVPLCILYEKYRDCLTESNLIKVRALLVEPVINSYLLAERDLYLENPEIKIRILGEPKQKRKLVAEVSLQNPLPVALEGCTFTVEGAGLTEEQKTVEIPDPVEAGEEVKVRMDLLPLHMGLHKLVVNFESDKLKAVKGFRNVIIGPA

[4] = molecular target: T1, Coagulation factor XIII A chain; assay: Inhibition of F13-A in human plasma assessed as inhibition of fibrin clot formation by biotin incorporation assay in presence of 1 mM reduced GSH
[5] = molecular target: T3, Coagulation factor XIII A chain (Homo sapiens) (UniProt P00488); assay: Inhibition of F13-A in human plasma assessed as inhibition of fibrin clot formation at 1 X 10^-6 M by biotin incorporation assay; details: values are per cent of control
T3 sequence (whole entry): T1 sequence (P00488 whole entry)

[6] = molecular target: T3, Coagulation factor XIII A chain (Homo sapiens); assay: Inhibition of F13-A in human plasma assessed as inhibition of fibrin clot formation at 2 X 10^-7 M by biotin incorporation assay; details: values are per cent of control
[7] = molecular target: T3, Coagulation factor XIII A chain (Homo sapiens); assay: Inhibition of F13-A in human plasma assessed as inhibition of fibrin clot formation at 7.5 X 10^-8 M by biotin incorporation assay; details: values are per cent of control
[8] = molecular target: T3, Coagulation factor XIII A chain (Homo sapiens); assay: Inhibition of F13-A in human plasma assessed as inhibition of fibrin clot formation at 2 X 10^-8 M by biotin incorporation assay; details: values are per cent of control
[9] = molecular target: T3, Coagulation factor XIII A chain (Homo sapiens); assay: Inhibition of F13-A in human plasma assessed as inhibition of fibrin clot formation at 1 X 10^-6 M by biotin incorporation assay in presence of 10 X 10^-3 mol/l reduced GSH; details: values are per cent of control
[10] = molecular target: T3, Coagulation factor XIII A chain (Homo sapiens); assay: Inhibition of F13-A in human plasma assessed as inhibition of fibrin clot formation at 2 X 10^-7 M by biotin incorporation assay in presence of 10 X 10^-3 mol/l reduced GSH; details: values are per cent of control
[11] = molecular target: T3, Coagulation factor XIII A chain (Homo sapiens); assay: Inhibition of F13-A in human plasma assessed as inhibition of fibrin clot formation at 7.5 X 10^-8 M by biotin incorporation assay in presence of 10 X 10^-3 mol/l reduced GSH; details: values are per cent of control
[12] = molecular target: T3, Coagulation factor XIII A chain (Homo sapiens); assay: Inhibition of F13-A in human plasma assessed as inhibition of fibrin clot formation at 2 X 10^-8 M by biotin incorporation assay in presence of 10 X 10^-3 mol/l reduced GSH; details: values are per cent of control
[13] = molecular target: T3, Coagulation factor XIII A chain (Homo sapiens); assay: Inhibition of F13-A (unknown origin) at 10^-6 mol/l in presence of 5 X 10^-3 mol/l DTT

Cathepsin S (Homo sapiens), sequence (P25774 115-331 limits assumed): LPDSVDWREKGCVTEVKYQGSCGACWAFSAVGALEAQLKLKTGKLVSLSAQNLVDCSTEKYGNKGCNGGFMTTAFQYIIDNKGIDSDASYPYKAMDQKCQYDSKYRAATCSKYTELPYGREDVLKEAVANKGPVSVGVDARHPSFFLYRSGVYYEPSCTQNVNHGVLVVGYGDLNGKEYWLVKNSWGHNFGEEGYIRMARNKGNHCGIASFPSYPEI

Structure (SMILES)	IC50 [1]	inhibition [2]	Selectivity ratio (Homo sapiens)	IC50 [3]	residual activity [5]	residual activity [6]	residual activity [7]	residual activity [8]	residual activity [9]	residual activity [10]	residual activity [11]	residual activity [12]	inhibition [13]	IC50 [4]
NC(=O)[C@@H]1O[C@@H]1C(=O)Nc1ccc(Br)cc1 (racemic)	130 nM	inactive	10000	57 nM	–	–	–	–	–	–	–	–	–	–
C/C=C/C/C=C/CCC(=O)[C@H]1O[C@H]1C(N)=O [CERULENIN]	4000 nM	–	–	–	–	–	–	–	–	–	–	–	–	18000 nM
CCCCc1ccc(NC(=O)[C@@H]2O[C@@H]2C(N)=O)cc1 (racemic)	220 nM	inactive	10000	150 nM	27%	76%	99%	93%	34%	79%	104%	102%	–	–
Cc1ccc(NC(=O)[C@H]2O[C@H]2C(N)=O)cc1C (racemic)	110 nM	inactive	10000	130 nM	–	–	–	–	–	–	–	–	–	–
NC(=O)[C@@H]1O[C@@H]1C(=O)Nc1ccc(CCNS(=O)(=O)c2ccccc2[N+](=O)[O-])cc1 (racemic)	90 nM	inactive	10000	88 nM	–	–	–	–	–	–	–	–	–	–
NC(=O)[C@@H]1O[C@@H]1C(=O)Nc1ccc(Oc2ccc([N+](=O)[O-])cc2)cc1 (racemic)	430 nM	inactive	10000	–	–	–	–	–	–	–	–	–	–	–
NC(=O)[C@@H]1O[C@@H]1C(=O)Nc1ccc(Oc2ccc(NC(=O)c3ccc(F)cc3)cc2)cc1 (racemic)	100 nM	inactive	10000	150 nM	–	–	–	–	–	–	–	–	–	–
NC(=O)[C@@H]1O[C@@H]1C(=O)Nc1ccccc1 (racemic)	720 nM	inactive	10000	1100 nM	–	–	–	–	–	–	–	–	–	–

The next compounds have a lower IC50 [1] than those just listed; values first:

IC50 [1]	inhibition [2]	Selectivity ratio (Homo sapiens)	IC50 [3]	residual activity [5]	residual activity [6]	residual activity [7]	residual activity [8]	residual activity [9]	residual activity [10]	residual activity [11]	residual activity [12]	inhibition [13]	Structure (SMILES)	IC50 [4]
4 nM	inactive	10000	9.6 nM	–	–	–	–	–	–	–	–	–	NC(=O)[C@@H]1O[C@@H]1C(=O)Nc1ccc(Br)c(Cl)c1 (racemic)	–
4 nM	inactive	10000	50 nM	–	–	–	–	–	–	–	–	–	NC(=O)[C@H]1O[C@H]1C(=O)Nc1cccc(Oc2ccccc2)c1 (racemic)	–
48 nM	inactive	10000	48 nM	–	–	–	–	–	–	–	–	–	NC(=O)[C@H]1O[C@H]1C(=O)Nc1cccc(Cl)c1 (racemic)	–
55 nM	inactive	10000	46 nM	6.1%	32%	66%	96%	7.8%	47%	78%	90%	Active	NC(=O)[C@H]1O[C@H]1C(=O)Nc1ccc(Oc2ccccc2)cc1 (racemic)	–
86 nM	inactive	10000	48 nM	–	–	–	–	–	–	–	–	–	NC(=O)[C@@H]1O[C@@H]1C(=O)Nc1ccc(Oc2ccc(N)cc2)cc1 (racemic)	–
